Patent EP4810065A1, “COMBINED USE OF ANTIBODY-DRUG CONJUGATE AND POLY(ADENOSINE D[…]) POLYMERASE INHIBITOR” (Jiangsu Hansoh Pharmaceutical Group Co., Ltd., priority 2023, dated 2025)

How the values were obtained:
CAL-51 cells = test: CTG growth inhibition, drug A/drug B cross-combination, 6 days; assay type: cell-based, human; conditions: Drug B alone, 4.12-1000.00 nM
Description: (§1) Tumor cells in good growth condition were seeded into 96-well plates. After overnight growth onto the wall, different concentrations of the test substances were administered, with different concentrations of the two test substances arranged in a cross-combination design.
(§2) The starting concentration of test drug A was 1000 nM, which was subjected to 1:3 serial dilution to generate a total of 6 concentration levels; the starting concentration of test drug B was set at 1000 nM, which was subjected to 1:3 serial dilution to generate a total of 6 concentration levels. After the combined test substances had acted on each cell line for 6 days, the CTG method was used to detect the in vitro proliferation inhibitory effect of the combined use of the test drugs on tumor cells. Table 2-1 Drug A and drug B treatment dosing scheme
(§3) Based on the signal values measured by the microplate reader, the cell growth inhibition rate was calculated according to the following formula: Growth inhibition rate % (growth inhibition%) = [1-(measured value-minimum value mean-background value)/(maximum value mean-background value-minimum value mean)] ×100% (measured value: reading value of compound wells; minimum value: reading value of ZPE wells (reading value of wells containing cell culture medium without cells); maximum value: reading value of HPE wells (cell reading value of the DMSO treatment group); background value: cell background measured value before addition of the compound).

COV362 cells = test: as above; assay type: cell-based, human; conditions: Drug B alone, 4.12-1000.00 nM
Description: as §1, §2, §3

EN cells = test: as above; assay type: cell-based, human; conditions: Drug B alone, 4.12-1000.00 nM
Description: as §1, §2, §3

HEC-1A cells = test: as above; assay type: cell-based, human; conditions: Drug B alone, 4.12-1000.00 nM
Description: as §1, §2, §3

MX-1 cells = test: as above; assay type: cell-based, human; conditions: Drug B alone, 4.12-1000.00 nM
Description: as §1, §2, §3

OAW42 cells = test: as above; assay type: cell-based, human; conditions: Drug B alone, 4.12-1000.00 nM
Description: as §1, §2, §3

SK-OV-3 cells = test: as above; assay type: cell-based, human; conditions: Drug B alone, 4.12-1000.00 nM
Description: as §1, §2, §3

[1] = test system: MX-1 human breast cancer cell mouse xenografts; test: MX-1 human breast cancer subcutaneous xenograft model; assay type: in vivo, Balb/c nude mice
Description: Drug A was prepared by dilution with normal saline, and drug B was prepared using 0.5% HPMC; Human breast cancer MX-1 cells were cultured as a monolayer in vitro under culture conditions of DMEM/F12 medium supplemented with 10% fetal bovine serum, 100 U/mL penicillin, and 100 µg/mL streptomycin, and cultured in a cell incubator at 37°C and 5% CO2. Routine digestion treatment and passaging were carried out twice a week using trypsin-EDTA. When the cell confluence was 80%-90% and the number of cells reached the requirement, the cells were collected, counted, and inoculated.
Balb/c nude mice, female, body weight 17-25 g, were purchased from Shanghai Bi Kai Ke Yi Biotechnology Co., Ltd.
MX-1 cells were resuspended in PBS, the density after resuspension was 100×10^6/mL, the resuspended cells were mixed with an equal volume of Matrigel, inoculated subcutaneously into the right dorsal side of each mouse, 0.1 mL was inoculated into each mouse (5×10^6 cells/animal), and when the average tumor volume grew to 100-150 mm^3, grouping was carried out (D1), and drug administration was started on the day of grouping. The mice were administered by gavage (p.o.) once daily; the mice were administered by tail vein injection (i.v.) as a single administration; the administration volume was 10 mL/kg; the vehicle group was given the same volume of "vehicle"; the specific administration doses and administration regimens are shown in Table 3-1. Tumor volume was measured, mouse body weight was weighed, and data were recorded.
The experimental indicator was to examine the effect of the drug on tumor growth, and the specific indicator was the tumor growth inhibition rate TGI (%).
The tumor diameter was measured twice a week with a vernier caliper, and the calculation formula for tumor volume (V) was:V = 1/2×a×b^2 where a, b respectively indicate length and width.
Calculation of TGI (%): When there was no tumor regression, TGI (%) = [1 - (average tumor volume of a certain treatment group at the end of administration - average tumor volume of that treatment group at grouping)/(average tumor volume of the vehicle control group at the end of treatment - average tumor volume of the vehicle control group at grouping)] × 100%. When there was tumor regression, TGI (%) = [1 - (average tumor volume of a certain treatment group at the end of administration - average tumor volume of that treatment group at grouping)/average tumor volume of that treatment group at grouping] × 100%.
At the end of the experiment, upon reaching the experimental endpoint, or when the average tumor volume reached 2000 mm^3, the animals were euthanized under CO2 anesthesia, and then dissected for tumor collection and photographing.
The experimental data were analyzed and plotted using GraphPad Prism 9.4. Based on the tumor volume data of each group at different time points, Dunnett's multiple comparisons test in Two-way ANOVA was used for statistical analysis to evaluate differences among groups. […] Table 3-1. Dosing regimen of drug A in combination with drug B in the MX-1 model

CCc1cc2ncc(CN3CC=C(c4ccc(C(=O)NC)nc4)CC3)cc2[nH]c1=O [Drug B, 1'-((7-ethyl-6-oxo-5,6-dihydro-1,5-naphthyridin-3-yl)methyl)-N-methyl-1',2',3',6'-tetrahydro-[3,4'-bipyridine]-6-carboxamide]
Growth inhibition rate (CAL-51 cells; drug B 4.12 nM): 9.89% | Growth inhibition rate (CAL-51 cells; drug B 12.35 nM): 8.42% | Growth inhibition rate (CAL-51 cells; drug B 37.04 nM): 12.34% | Growth inhibition rate (CAL-51 cells; drug B 111.11 nM): 11.19% | Growth inhibition rate (CAL-51 cells; drug B 333.33 nM): 15.02% | Growth inhibition rate (COV362 cells; drug B 4.12 nM): 22.59% | Growth inhibition rate (COV362 cells; drug B 12.35 nM): 22.45% | Growth inhibition rate (COV362 cells; drug B 37.04 nM): 21.18% | Growth inhibition rate (COV362 cells; drug B 111.11 nM): 25.95% | Growth inhibition rate (COV362 cells; drug B 333.33 nM): 23.74% | Growth inhibition rate (EN cells; drug B 4.12 nM): 31.13% | Growth inhibition rate (EN cells; drug B 12.35 nM): 22.59% | Growth inhibition rate (EN cells; drug B 37.04 nM): 24.15% | Growth inhibition rate (EN cells; drug B 111.11 nM): 27.18% | Growth inhibition rate (EN cells; drug B 333.33 nM): 24.54% | Growth inhibition rate (HEC-1A cells; drug B 4.12 nM): 3.73% | Growth inhibition rate (HEC-1A cells; drug B 12.35 nM): 4.25% | Growth inhibition rate (HEC-1A cells; drug B 37.04 nM): 5.84% | Growth inhibition rate (HEC-1A cells; drug B 111.11 nM): 9.01% | Growth inhibition rate (HEC-1A cells; drug B 333.33 nM): 7.40% | Growth inhibition rate (MX-1 cells; drug B 4.12 nM): 33.15% | Growth inhibition rate (MX-1 cells; drug B 12.35 nM): 31.24% | Growth inhibition rate (MX-1 cells; drug B 37.04 nM): 33.85% | Growth inhibition rate (MX-1 cells; drug B 111.11 nM): 40.59% | Growth inhibition rate (MX-1 cells; drug B 333.33 nM): 46.92% | Growth inhibition rate (OAW42 cells; drug B 4.12 nM): 6.29% | Growth inhibition rate (OAW42 cells; drug B 12.35 nM): 4.07% | Growth inhibition rate (OAW42 cells; drug B 37.04 nM): 6.30% | Growth inhibition rate (OAW42 cells; drug B 111.11 nM): 7.53% | Growth inhibition rate (OAW42 cells; drug B 333.33 nM): 12.46% | Growth inhibition rate (SK-OV-3 cells; drug B 4.12 nM): 3.96% | Growth inhibition rate (SK-OV-3 cells; drug B 12.35 nM): 2.49% | Growth inhibition rate (SK-OV-3 cells; drug B 37.04 nM): 2.34% | Growth inhibition rate (SK-OV-3 cells; drug B 111.11 nM): 6.14% | Growth inhibition rate (SK-OV-3 cells; drug B 333.33 nM): 9.22% | Average tumor volume (mm^3) ± SEM ([1]; D0 (at grouping), Drug B 0.3 mg/kg): 148±7 mm^3 | Average tumor volume (mm^3) ± SEM ([1]; D28, Drug B 0.3 mg/kg): 199±20 mm^3 | TGI (%) ([1]; D28, Drug B 0.3 mg/kg): 97.25% | Partial regression ([1]; D28, Drug B 0.3 mg/kg, animals with partial regression/animals in group): 2/8 | tolerability (body weight, death, abnormal symptoms) ([1]; MX-1 tumor-bearing mice): could well tolerate
